As a reminder, the IC50 is the midpoint of a concentration-inhibition curve. A word on the Emax: it is the greatest response seen or fitted, relative to the assay's reference.

pEC50, pIC50: −log10 of the molar value. Read-outs that look alike come from different tables or passages of the source.

In series [1] the test system is P. falciparum ABS. To be noted: cited from earlier work; for pEC50: ChEMBL Data; for pIC50: read-out: Pf 3D7 Pbox IC50.
Series [2] has as its system liver stage. The settings on record: cited from earlier work.
The subject of series [3] is HepG2. The settings on record: cited from earlier work; for CC50: read-out: HepG2 PBox CC50 µM; for HepG2 PBox CC20 μMc: ref Pbox supporting information.
In series [4] the test system is HEK293 cells. In words: HEK293 resazurin cell cytotoxicity assay. To be noted: Homo sapiens; for inhibition at 20 µM / pIC50: HEK293, read-out: HEK % Inhibition 20uM/IC50 Discovery Biology; for IC50: HEK293, read-out: HEK % Discovery Biology IC50 uM. In general terms: The colour change of resazurin is a common sign of viable cells or microbes.
In series [5] the test system is NF54-pfs16-LUC-GFP stage IV gametocytes. Nature of the series: Plasmodium falciparum late stage gametocyte (LSG) image-based assay. To be noted: Plasmodium falciparum. It is filed as cell-based.
In series [6] the test system is Plasmodium falciparum 3D7 asexual blood stage. In words: microbe, parasite or virus in culture.
Series [7] has as its system T. b. brucei 427 bloodstream trypanosomes. Nature of the series: T. b. brucei resazurin viability assay. The settings on record: Trypanosoma brucei; read-out: T b.brucei Discovery Biology IC50. It is filed as cell-based, Trypanosoma brucei brucei.
Series [8] deals with T. cruzi intracellular amastigotes. In words: Intracellular anti-Trypanosoma cruzi image-based assay (amastigotes). The series is classed as cell-based. The settings on record: for pIC50 / Emax: Trypanosoma cruzi; for pIC50: intracellular amastigotes; for Emax: PBox kinetoplastid set compounds active against T. cruzi alone, read-out: Emax against T. cruzi (subefficacious effect).

Series [9] relates to L. donovani MHOM/IN/80/DD8 intracellular amastigotes. Nature of the series: Leishmania donovani intracellular amastigote assay in THP-1 cells. It is filed as cell-based. The settings on record: Leishmania donovani, THP-1, read-out: L, donovani Discovery Biology IC50 µM.
Series [10] relates to T. cruzi C4 β-galactosidase reporter parasite in MRC 5SV2 host cells. The settings on record: ref Pbox supporting information; read-out: T. cruzi Pbox IC50; cited from earlier work.
Where [11] appears, read: Pf 3D7, ref Pathogen Box supporting information.
The mark [12] stands for this setting: liver stage, ref Pathogen Box supporting information, read-out: LIVER STAGE Pbox IC50.
[13] abbreviates: ref PBox supporting information.
Where [14] appears, read: NF54, read-out: Antiplasmodial IC50 (GAM / LSG), PBox compounds, stage IV gametocytes, single determination.
Setting [15] is: HepG2 cytotoxicity, ref PBox supporting information.
The mark [16] stands for this setting: 3D7, read-out: Antiplasmodial IC50 (ABS), PBox compounds, P. falciparum 3D7.
Where [17] appears, read: 3D7, read-out: activity against P. falciparum (novel antiplasmodial actives of the tuberculosis set).
Where [18] appears, read: NF54, read-out: Pf Stage IV GAMS Discovery Biology IC50 µM, stage IV gametocytes, Discovery Biology.
Setting [19] is: 3D7, read-out: Pf 3D7 Discovery Biology IC50 µM, P. falciparum 3D7 asexual blood stage, Discovery Biology.
Setting [20] is: PBox compounds, 48 h exposure, read-out: IC50 T. cruzi (Discovery Biology).
Setting [21] is: NF54, read-out: Pf Stage IV GAMS Discovery Biology IC50 µM, stage IV gametocytes.
[22] abbreviates: 3D7, read-out: Pf 3D7 Discovery Biology IC50 µM, P. falciparum 3D7 asexual blood stage.
Where [23] appears, read: read-out: T cruzi Discovery Biology IC50.

For the compound `O=C1Nc2ccc(Br)cc2C12NCCc1c2[nH]c2ccccc12` (centres unmarked) [MMV006239], the pEC50 in series [1] (NITD, read-out: NITD (ref 94) EC50) is 6.70. Besides, the pIC50 in series [1] (setting [11]) was 6.29; in series [2] (setting [12]), below 5.00. Further, in series [3] (HepG2 CC50, ref Pathogen Box supporting information), the CC50 was above 10 µM.

With `NS(=O)(=O)c1cncc(-c2ccc3nccc(-c4cn[nH]c4)c3n2)c1` [MMV024101], the pEC50 in series [1] (TCMDC, read-out: TCMDC (ref 93) EX50) is 6.28. In addition, the pIC50 in series [1] (setting [11]) is 6.22; in series [2] (setting [12]), 5.66.

Take `O=C1COCc2ccc(Br)cc2N1Cc1ccc(C(F)(F)F)cc1` [MMV032995]: the pIC50 was 6.02 in series [1] (P. falciparum 3D7, ref PBox supporting information) and 5.70 in series [2] (ref Pbox supporting information).

For `COc1ccc(-c2nn(C(C)C)c3ncnc(N)c23)cc1OC` [MMV675993], the inhibition at 20 µM in [4] worked out at 73%. For the same compound, the pIC50 in [5] (NF54, read-out: Pf Stage IV GAMS Discovery Biology IC50, stage IV gametocytes) is 5.71; in series [6] (3D7, read-out: Pf 3D7 Discovery Biology IC50, P. falciparum 3D7 asexual blood stage) it was 5.97. Also, in [3] (setting [13]), the “HepG2 PBox CC20” value was 1.6 µM.

With `CCC(Sc1nc2ccccc2o1)C(=O)Nc1nccs1` (centres unmarked) [MMV676383], in series [4], the inhibition at 20 µM amounted to 88%. The results for the pIC50 in series [5] (setting [14]), in series [6] (setting [16]) and in series [6] (setting [17]) were 5.86, 5.35 and 5.30 to 5.40, respectively. In series [3] (setting [15]), the CC50 was 13 µM.

For the compound `CC(Oc1ccccc1)C(=O)Nc1nc(-c2ccccn2)cs1` (centres unmarked) [MMV676411], the pIC50 in series [7] is 5.49. Further, the inhibition at 20 µM in series [4] is 81%. For the same compound, the concentration for half-maximal inhibition (IC50) in series [5] (setting [18]) was 1.92 µM; in series [6] (setting [19]), 5 µM. In addition, the CC50 in [3] (setting [15]) was 29.3 µM.

`O=C(Nc1nc(-c2ccccn2)cs1)c1cncn1-c1ccccc1` [MMV676512]: the pIC50 in series [7] was 5.54; in series [8] (Discovery Biology, read-out: T cruzi Discovery Biology IC50), 5.39. Besides, in series [4], the half-maximal inhibitory concentration (IC50) worked out at 2.83 µM. Further, in [3] (setting [15]), the CC50 was 3.8 µM.

Regarding `COc1cccc(-c2nc3c(N4CCCC4)cccc3n2CC2CCCN2)n1` (centres unmarked) [MMV687703], the inhibition at 20 µM in [4] was 76%. Moreover, the pIC50 in series [5] (setting [14]) was 5.42; in [6] (setting [16]) it was 5.88; in [6] (setting [17]), above 5.70. Also, the CC50 in [3] (setting [15]) was 25 µM.

`O=C(Nc1ccc(C(F)(F)F)c(C(F)(F)F)c1)c1cc(Cl)ccc1O` [MMV687807]: the IC50 worked out at 5.06 µM in series [9] (Discovery Biology, some values carry an asterisk (not explained in the part shown)); 1.99 µM in series [4]; 5.07 µM in [5] (setting [18]); 1.82 µM in series [6] (setting [19]). Moreover, the pIC50 in series [7] is 6.18. Also, the CC50 in [3] (setting [15]) is 0.65 µM.

Turning to `CC(C)n1nc(-c2cc3c(Cl)cccc3[nH]2)c2c(N)ncnc21` [MMV688417], the pIC50 in [7] was 5.21; in series [8] (setting [20]), 5.84. Besides, the inhibition at 20 µM in series [4] stood at 83%. Moreover, the “activity against T. cruzi in the Discovery Biology assay” value in series [8] was “subefficacious activity”.

Regarding `CS(=O)(=O)c1ccc(C(=O)N(CC2CCCO2)c2nc3ccccc3s2)cc1[N+](=O)[O-]` (centres unmarked) [MMV688761], the pIC50 in series [7] is 5.46. Further, the inhibition at 20 µM in series [4] was determined as 42%. Moreover, the 50% inhibitory concentration (IC50) stood at 0.9 µM in series [5] (setting [21]) and 4.08 µM in series [6] (setting [22]). In addition, in series [3], the “HepG2 PBox CC20 μMc” value is 6.9 µM.

Turning to `CNc1nnc(Sc2cnn(-c3ccccc3)c(=O)c2Cl)s1` [MMV688763], the IC50 in series [9] (intracellular amastigotes, values marked *) came to 2.11 µM; in series [4] it was 6.32 µM; in series [5] (setting [21]), 5.33 µM; in series [6] (setting [22]) it was 3.36 µM. For the same compound, the “HepG2 PBox CC20 μMc” value in series [3] is 1.6 µM.

Turning to `FC(F)(F)c1ccc(N(c2cccnc2)C2CCN(c3ccc(C(F)(F)F)cn3)CC2)cc1` [MMV689243], the pIC50 in series [10] is 7.82; in series [4], below 4.70; in [8] (setting [23]) it was 6.15. Moreover, in series [3] (setting [13]), the “HepG2 PBox CC20” value was 25.8 µM. The maximum response (Emax) in series [8] is below 100%.

With `O=C([C@@H](c1ccc(Cl)cc1)c1cccnc1)N1CCN(c2ccc(C(F)(F)F)cc2)CC1` [MMV689244], the values for the pIC50 in series [10], in series [4] and in [8] (setting [23]) were 8.12, below 4.70 and 6.92, respectively. In addition, the “HepG2 PBox CC20” value in [3] (setting [13]) was 19.0 µM. Further, the Emax in series [8] was below 100%.

For the compound `CNc1cc(C)nc(C2CN(C(=O)c3n[nH]c4ccccc34)CCO2)c1` (centres unmarked) [MMV689709], the figures for the pIC50 in series [10], in series [4] and in [8] (setting [20]) were 5.41, below 4.70 and 5.48, respectively.
